{
  "source": "patent US12138240B2",
  "about": "“Treatment of cardiac dysfunction” (priority 2017, dated 2024)",
  "key": {"male healthy subjects [1]": {"system": "male healthy subjects", "parameters": "species or system human", "conditions": "in vivo", "procedure": "(§1) Seventeen subjects contributed ECG data to the analysis dataset. The study was randomized single dose escalating phase I first-in-human study designed to investigate the safety and tolerability, and pharmacokinetics of ascending oral doses of ANAVEX 2-73 in male healthy subjects. It was double-blind and placebo-controlled within each dosage step—a two cohort study with alternating single dose escalation performed in male healthy subjects. Subjects were administered 10, 30, 40, 50, or 60 mg of ANAVEX 2-73 orally with a 4-week washout between doses. Sampling for drug and ECG was from predose to 48 hr. Note that Placebo-adjusted (delta-delta) change in QTcF is represented as ΔΔQTcF.\nSubjects provided time-matched exposure-ECG data for analysis. For the exposure-QTc analysis, data obtained after the administration of doses greater than 1 mg were used. […] However, ECG data from the administration of the 1 mg dose were included in the categorical and outlier analysis.\n(§2) Data analysis proceeded from data structure analysis in S-PLUS to linear/nonlinear mixed effects modeling in NONMEM to develop the exposure-QTc relationship for ANAVEX 2-73 and its active metabolite ANAVEX 19-144. The correction method used for QT interval was the Fridericia's correction. The bootstrap was used to determine the reliability/stability of the exposure-QTc models developed. This was necessary to determine if the modeling results obtained with data from the 17 subjects would be applicable to the population at large, given the sample size. Exposure-heart rate and exposure-change from baseline QTc, and exposure-placebo corrected QTc relationship models were developed for the elucidation of any exposure-QTc relationship.\nIn addition, categorical summaries of the ECG data were generated using the ICH E14 guidance-defined categories of QTc interval duration as well as change from baseline.\nA protocol presented herein was a single ascending dose (SAD) phase I first-in-human study designed to investigate the safety and tolerability, and pharmacokinetics of ascending oral doses of ANAVEX 2-73 in male healthy subjects. The study was a randomized, double-blind, and placebo-controlled within each dosage step. It was a two cohort study with alternating single dose escalation performed in male healthy subjects. The subjects were divided into two cohorts of 8 subjects each—Cohort A (n=8), and Cohort B (n=8). However, 17 evaluable subjects were studied in a 8:9 ratio in cohorts A and B, respectively. The study comprised repeated treatment periods with at least 4 weeks of intermediary washout periods.\nPer study protocol, triplicate 12-lead ECGs safety recordings were obtained at the following times: Day 1 at T0/pre-dose (3 baseline ECGs), T+0.25 h (15 min), T+0.5 h (30 min), T+1 h, T+2 h, T+4 h, T+8 h and T+12 h, on Day 2 at T+24 h, T+36 h, and on Day 3 at T+48 h. ECGs were recorded at each PK sampling time (i.e., 0.25, 0.5, 1, 2, 3, 4, 6, 8, 24, 36, and 48 hours after initiation of treatment). Thus, ECG recordings were time-matched with PK sampling.\nECG metrics evaluated included the heart rate (HR), the duration of QT interval, and the heart rate-corrected QT interval according to Fridericia's formula (QTcF). Change of QTcF from baseline (dQTcF), and placebo corrected QTcF (ΔΔQTcF) were generated from the data and used for the analysis.\nBaseline ECG was defined as pre-dose baseline on each dosing occasion. Given the four weeks washout between dosing, the pre-dose baseline ECG was used as the baseline ECG for the particular dose/dosing occasion. A change from baseline variable for QTc interval (ΔQTcF) was calculated using pre-dose baseline.\nΔΔQTcF data was a single dose ascending study. As such not all subjects were administered placebo in each of the study periods. Only nine subjects were administered placebo in the course of the study. Consequently, it was not possible to make subject specific placebo correction. […]"}, "[2]": {"test": "phase I single ascending dose study, plasma concentrations of ANAVEX 2-73 and metabolite ANAVEX 19-144", "assay_type": "in vivo, human", "conditions": "for plasma concentration of the labelled analyte: 1 mg ANAVEX 2-73 oral dose; for concentration at 24 h / Cmax: human, plasma; for concentration at 24 h: one subject, 40 mg ANAVEX 2-73 oral, 24 hr time point, read-out: plasma concentration of the labelled analyte; for Cmax: male", "procedure": "as §1\nBlood samples for ANAVEX 2-73 and metabolite ANAVEX 19-144 plasma concentration determination were drawn on Day 1 at time zero, T0, (before drug administration), T+0.25 h (15 min), T+0.5 h (30 min), T+1 h, T+1.5 h, T+2 h, T+3 h, T+3.5 h, T+4 h, T+6 h, T+8 h and T+12 h, on Day 2 at T+24 h and T+36 h, and on Day 3 at T+48 h.\nThe PK variables employed in the analysis were the patient-, regimen- and time-specific observed plasma concentration of ANAVEX 2-73 and ANAVEX 19-144.\nThe dataset comprised observed ANAVEX 2-73 and ANAVEX 19-144 plasma concentrations that were direct matches in time with QT interval measurements. The analysis variable of interest was the QT interval duration corrected for RR interval duration according to Fridericia's formula (i.e., QTcF), HR, and change from baseline QT interval duration corrected for RR interval duration according to Fridericia's formula (ΔQTcF or dQTcF). Baseline is defined as the mean of any and all values immediately obtained prior to ANAVEX 2-73 administration."}, "male healthy subjects [3]": {"system": "male healthy subjects", "test": "linear exposure-heart rate model (NONMEM)", "parameters": "species or system human", "text": "as §2\nConcentration-QTc modeling was performed with the software NONMEM v7.3 (Icon Development Solutions, Ellicott City, MD) and graphical analysis, diagnostics plots, and supporting analyses using S Plus v8.2 (TIBCO Software, Boston, MA) and the R package.\nFurther modeling characterizes the exposure-heart rate relationship. […] for the model were ANAVEX 2-73 and ANAVEX 19-144 concentrations, and time. The baseline heart rate was also estimated. The best model developed to explain the exposure-heart rate relationship included all three variables. Again, ANAVEX 2-73 concentration by itself was not initially biologically QT active, but became active as metabolized to A19-144 in the model. At about 4 to 8 hours post administration A19-144 peaks and surpasses A2-73 at about 8 hours post administration. […] The metabolism of A2-73 to A19-144 modifies this effect. […] It is important to note the upward and negative inflexions in the parent compound and the active metabolite in the final model, respectively, are not indicative of model misspecification but are due to the sensitivity of smoothing loess regression (red line in FIG. 17) to outlying observations in the y-axis. The final model is given below: HRij=56.5−0.106*Parent+0.369*Metabolite+0.153*Time where HRij is subject specific heart rate, Parent refers to ANAVEX 2-73, and Metabolite is for ANAVEX 19-144.\nObserved and unlikely to be observed concentrations of the parent drug and metabolite are used to predict heart rate, given the parameter estimates obtained with the exposure-heart rate model developed. […] Thus, the heart rate upon treatment with ANAVEX 2-73 is predicted to be below 75 beats/min."}},
  "note": "Entries after “also recorded” stand apart in the source; their conditions may differ. Where two headings read alike, the source gives them in different places.",
  "data": [
    {"smiles": "CN(C)CC1CCOC1(c1ccccc1)c1ccccc1.Cl", "note": "(centres unmarked) [ANAVEX 2-73, 1-(2,2-diphenyltetrahydrofuran-3-yl)-N,N-dimethylmethanamine hydrochloride]", "values": [
      {"measurement": "QT interval prolongation", "setting": "male healthy subjects [1]", "value": "does not prolong QT interval"},
      {"measurement": "effect on dQTcF (exposure-dQTcF characterization)", "setting": "male healthy subjects [1]", "value": "did not show any effect"},
      {"measurement": "graphical relationship of paired concentrations with QTcF measurements", "setting": "male healthy subjects [1]", "value": "minimal positive trend"},
      {"measurement": "relationship with ΔΔQTcF (placebo-adjusted change in QTcF)", "setting": "male healthy subjects [1]", "value": "no relationship"},
      {"measurement": "dQTcF (change in QTcF from baseline), any subject", "setting": "male healthy subjects [1]; male, human", "value": "≤ 30", "unit": "ms"},
      {"measurement": "plasma concentration of the labelled analyte", "setting": "[2]", "value": "not quantifiable at most of the sampling times beyond two to four hours after dosing"},
      {"measurement": "concentration at 24 h", "setting": "[2]", "value": 2.23, "unit": "ng/mL"},
      {"measurement": "Cmax", "setting": "[2]; oral, footnote a, read-out: ANAVEX 2-73 Concentration, observed Cmax from the QTc analysis dataset", "value": 46.2, "unit": "ng/mL"},
      {"measurement": "Slope on parent, exposure-heart rate model estimate", "setting": "male healthy subjects [3]", "value": "−0.106", "unit": "beats/min/ng/mL"},
      {"measurement": "initial effects on heart rate", "setting": "male healthy subjects [3]", "value": "opposite initial effects on heart rate"}
    ]},
    {"smiles": "CNCC1CCOC1(c1ccccc1)c1ccccc1.Cl", "note": "(centres unmarked) [ANAVEX 19-144, 1-(2,2-diphenyltetrahydrofuran-3-yl)-N-methylmethanamine hydrochloride]", "values": [
      {"measurement": "anti-arrhythmic activity", "setting": "male healthy subjects [1]", "value": "anti-arrhythmic"},
      {"measurement": "effect on dQTcF (exposure-dQTcF characterization)", "setting": "male healthy subjects [1]", "value": "did not show any effect"},
      {"measurement": "graphical relationship of paired concentrations with QTcF measurements", "setting": "male healthy subjects [1]", "value": "slight minimal upward trend from baseline followed by a slight negative trend"},
      {"measurement": "relationship with ΔΔQTcF (placebo-adjusted change in QTcF)", "setting": "male healthy subjects [1]", "value": "no relationship"},
      {"measurement": "plasma concentration of the labelled analyte", "setting": "[2]; hydrochloride", "value": "below the limit of detection; also recorded: not quantifiable"},
      {"measurement": "ANAVEX 19-144 Concentration, observed Cmax from the QTc analysis dataset", "setting": "[2]; footnote a, after oral ANAVEX 2-73, hydrochloride", "value": "23.96 ^a ng/mL"},
      {"measurement": "concentration at 24 h", "setting": "[2]", "value": 3.33, "unit": "ng/mL"},
      {"measurement": "Cmax", "setting": "[2]; footnote a, after oral ANAVEX 2-73, read-out: ANAVEX 19-144 Concentration, observed Cmax from the QTc analysis dataset", "value": 24, "unit": "ng/mL"},
      {"measurement": "Slope on metabolite, exposure-heart rate model estimate", "setting": "male healthy subjects [3]", "value": 0.369, "unit": "beats/min/ng/mL"},
      {"measurement": "initial effects on heart rate", "setting": "male healthy subjects [3]", "value": "opposite initial effects on heart rate"}
    ]}
  ]
}
